Structures can show the parent of a compound that is named as a salt. Non-standard residues stand in square brackets, D forms with d. Residues, ends and D or L forms follow the SMILES beside them. *: point of attachment. Pro(4R-OPh) = O=C(O)[C@@H]1C[C@@H](Oc2ccccc2)CN1; Hyp = O=C(O)[C@@H]1C[C@@H](O)CN1; Bn = c1ccc(C*)cc1; Allyl = C=CC*
System: Human Peripheral Blood Mononuclear Cells (PBMC) or Enriched Adherent Mononuclear Cells
Test: Cell assay: IL-1β assay with human PBMC or enriched adherent mononuclear cells
Assay type: cell-based
Settings: LPS-stimulated cells, mature IL-1β in supernatant by ELISA
Excerpt: IL-1β Assay with a Mixed Population of Human Peripheral Blood Mononuclear Cells (PBMC) or Enriched Adherent Mononuclear Cells
Processing of pre-IL-1S by ICE can be measured in cell culture using a variety of cell sources. Human PBMC obtained from healthy donors provides a mixed population of lymphocyte subtypes and mononuclear cells that produce a spectrum of interleukins and cytokines in response to many classes of physiological stimulators. Adherent mononuclear cells from PBMC provides an enriched source of normal monocytes for selective studies of cytokine production by activated cells.
An initial dilution series of test compound in DMSO or ethanol is prepared, with a subsequent dilution into RPMI-10% FBS media (containing 2 mM L-glutamine, 10 mM HEPES, 50 U and 50 ug/ml pen/strep) respectively to yield drugs at 4× the final test concentration containing 0.4% DMSO or 0.4% ethanol. The final concentration of DMSO is 0.1% for all drug dilutions. A concentration titration which brackets the apparent Ki for a test compound determined in an ICE inhibition assay is generally used for the primary compound screen.
We generally test 5-6 compound dilutions and have performed the cellular component of the assay in duplicate, with duplicate ELISA determinations on each cell culture supernatant.
Buffy coat cells isolated from one pint human blood (yielding 40-45 ml final volume plasma plus cells) are diluted with media to 80 ml and LeukoPREP separation tubes (Becton Dickinson) are each overlaid with 10 ml of cell suspension. After 15 min centrifugation at 1500-1800×g, the plasma/media layer is aspirated and then the mononuclear cell layer is collected with a Pasteur pipette and transferred to a 15 ml conical centrifuge tube (Corning). Media is added to bring the volume to 15 ml, gently mix the cells by inversion and centrifuge at 300×g for 15 min. Resuspend the PBMC pellet in a small volume of media, count cells and adjust to 6×10^6 cells/ml.
For the cellular assay, add 1.0 ml of the cell suspension to each well of a 24-well flat bottom tissue culture plate (Corning), 0.5 ml test compound dilution and 0.5 ml LPS solution (Sigma #L-3012; 20 ng/ml solution prepared in complete RPMI media; final LPS concentration 5 ng/ml). The 0.5 ml additions of test compound and LPS are usually sufficient to mix the contents of the wells. Three control mixtures are run per experiment, with either LPS alone, solvent vehicle control, and/or additional media to adjust the final culture volume to 2.0 ml. The cell cultures are incubated for 16-18 hr at 37° C. in the presence of 5% CO2.
At the end of the incubation period, cells are harvested and transferred to 15 ml conical centrifuge tubes. After centrifugation for 10 min at 200×g, supernatants are harvested and transferred to 1.5 ml Eppendorf tubes. It may be noted that the cell pellet may be utilized for a biochemical evaluation of pre-IL-1S and/or mature IL-1β content in cytosol extracts by western blotting or ELISA with pre-IL-1β specific antisera.
PBMC are isolated and prepared as described above. Media (1.0 ml) is first added to wells followed by 0.5 ml of the PBMC suspension. After a one hour incubation, plates are gently shaken and nonadherent cells aspirated from each well. Wells are then gently washed three times with 1.0 ml of media and final resuspended in 1.0 ml media. The enrichment for adherent cells generally yields 2.5−3.0×10^5 cells per well. The addition of test compounds, LPS, cell incubation conditions and processing of supernatants proceeds as described above.
We have used Quantikine kits (R&D Systems) for measurement of mature IL-1β. Assays are performed according to the manufacturer's directions. Mature IL-1β levels of about 1-3 ng/ml in both PBMC and adherent mononuclear cell positive controls are observed. ELISA assays are performed on 1:5, 1:10 and 1:20 dilutions of supernatants from LPS-positive controls to select the optimal dilution for supernatants in the test panel.

[1] = Homo sapiens, PBMC, Example 4 table
[2] = Homo sapiens, PBMC, Example 6 table
[3] = Homo sapiens, PBMC, Example 2 table

Structure (SMILES) | IC50 [1] [µM] | IC50 [2] [µM] | also measured
CC(C)[C@H](NC(=O)OCc1ccccc1)C(=O)N[C@@H](C)C(=O)N[C@H](CC(=O)O)C(=O)COCc1c(Cl)cccc1Cl (mixture of isomers) [Compound 84a, (R,S)N-[N-(Phenylmethyloxy)carbonyl-valinyl-alaninyl]-3-amino-5-(2,6-dichlorophenylmethyloxy)-4-oxo-pentanoic acid] | 3.3 |  | 
CC(C(=O)N[C@H](C=O)CC(=O)O)N1CCN(Cc2ccccc2)C[C@H](NC(=O)OCc2ccccc2)C1=O (mixture of isomers) [Compound 114a, 3(S)-{2(R,S)-[4-Benzyl-7-oxo-6(S)-(N-benzyloxycarbonylamino)-[1,4]diazepan-1-yl]-propionylamino}-4-oxo-butyric acid trifluoroacetic acid salt] |  | 3.8 | 
CC(C(=O)N[C@H](C=O)CC(=O)O)N1CCN(C(=O)CCc2ccccc2)C[C@H](NC(=O)CCc2ccccc2)C1=O (mixture of isomers) [Compound 115, 4-Oxo-3(S)-{2(R,S)-[7-oxo-4-(3-phenyl-propionyl)-6(S)-(3-phenyl-propionylamino)-[1,4]diazepan-1-yl]-propionylamino}-butyric acid] |  | 6 | 
C[C@H](NC(=O)c1nc(CCCc2ccccc2)c[nH]1)C(=O)N[C@H](C=O)CC(=O)O [Compound 20d, (3S)3-{N-[4-(3-Phenylpropyl)imidazole-2-carbonyl]-L-alaninyl}amino-4-oxo-butanoic acid] | 6.2 |  | 
COc1ccc(CCCc2cnc(C(=O)N3C[C@H](Oc4ccccc4)C[C@H]3C(=O)N[C@H](C=O)CC(=O)O)[nH]2)cc1 [Compound 22e, 3(S)-[(1-{5-[3-(4-Methoxyphenyl)propyl]-1H-imidazole-2-carbonyl}-4(R)-phenoxypyrrolidine-2(S)-carbonyl)amino]-4-oxobutanoic acid] |  | > 20 | 
C[C@H](NC(=O)c1cnc(CCc2ccccc2)[nH]1)C(=O)N[C@H](C=O)CC(=O)O [Compound 33a, (3S)3-{N-[2-(2-Phenylethyl)imidazole-4-carbonyl]-L-alaninyl}amino-4-oxobutanoic acid] | 25 |  | IC50 [3]: 25 µM
C[C@H](NC(=O)c1cnc(Cc2ccccc2)[nH]1)C(=O)N[C@H](C=O)CC(=O)O [Compound 33c, (3S)3-[N-(2-Benzylimidazole-4-carbonyl)-L-alaninyl]amino-4-oxobutanoic acid] | 20 |  | IC50 [3]: 20 µM
C[C@@H](C(=O)N[C@H](C=O)CC(=O)O)n1cccc(NC(=O)CCc2ccccc2)c1=O [Compound 54a] | 2.7 |  | IC50 (Example 2 table): 2 to 4 µM
O=C[C@H](CC(=O)O)NC(=O)Cn1c(Cc2ccccc2)ccc(NC(=O)CCc2ccccc2)c1=O [Compound 54b, 3(S)3-(6-Benzyl-1,2-dihydro-2-oxo-3-(3-phenylpropionyl)amino-1-pyridyl)acetylamino-4-oxobutanoic acid] | 9.1 | 20 | 
C=CCO[C@@H]1C[C@@H](C(=O)N[C@H](C=O)CC(=O)O)N(C(=O)[C@@H](NC(=O)[C@H](Cc2ccc(O)cc2)NC(C)=O)C(C)C)C1 [Compound 85, N-(N-Acetyl-tyrosinyl-valinyl-(4(R)-allyloxyprolinyl))-3(S)-amino-4-oxobutanoic acid] (Ac-YV[Hyp](Allyl)D-aldehyde) |  | 9.8 | 
O=C(O)C[C@H](NC(=O)[C@@H]1CCc2ncc(NC(=O)CCc3ccccc3)c(=O)n21)C(=O)COC(=O)c1c(Cl)cccc1Cl [Compound 102a, 2,6-Dichloro-benzoic acid 4-carboxy-2-oxo-(3S)-{[4-oxo-3-(3-phenyl-propionylamino)-4,6,7,8-tetrahydro-pyrrolo[1,2-a]pyrimidine-(6S)-carbonyl]-amino}-butyl ester] |  | 4 | 
C[C@H](NC(=O)CN1C(=O)[C@@H](NC(=O)CCc2ccccc2)CN(C(=O)CCc2ccccc2)c2ccccc21)C(=O)C(=O)O [Compound 106b, 2-Oxo-3(S)-{2-[2-oxo-5-(3-phenylpropionyl)-3(S)-(3-phenyl-propionyl-amino)-2,3,4,5-tetrahydrobenzo[b][1,4]diazepin-1-yl]acetylamino}butyric acid] |  | 2.9 | 
O=C(O)C[C@H](NC(=O)CN1C(=O)[C@@H](NC(=O)CCc2ccccc2)CN(C(=O)CCc2ccccc2)c2ccccc21)C(=O)COC(=O)c1c(Cl)cccc1Cl [Compound 108a, 2,6-Dichlorobenzoic acid 4-carboxy-2-oxo-3(S)-{2-[2-oxo-5-(3-phenylpropionyl)-3(S)-(3-phenylpropionylamino)-2,3,4,5-tetrahydrobenzo[b][1,4]diazepin-1-yl]acetylamino}butyl ester] |  | 17.5 | 
C[C@@H](C(=O)N[C@@H](CC(=O)O)C(=O)COC(=O)c1c(Cl)cccc1Cl)n1cccc(NC(=O)CCc2ccccc2)c1=O [Compound 130] |  | 1.2 | 
O=C(O)C[C@H](NC(=O)[C@@H]1CCCN2C(=O)CC[C@H](NC(=O)CCc3ccccc3)C(=O)N12)C(=O)COC(=O)c1c(Cl)cccc1Cl [Compound 136] |  | 1 | 
CS(=O)(=O)N[C@H]1CCC(=O)N2CCC[C@@H](C(=O)N[C@@H](CC(=O)O)C(=O)COC(=O)c3c(Cl)cccc3Cl)N2C1=O [Compound 138] |  | 0.375 | 
C[C@H](NC(=O)c1ncc[nH]1)C(=O)N[C@@H](CC(=O)O)C(=O)COC(=O)c1c(Cl)cccc1Cl [Compound 142] |  | 1.75 | 
CC(=O)N[C@@H](Cc1ccc(O)cc1)C(=O)N[C@H](C(=O)N1C[C@H](OCc2ccccc2)C[C@H]1C(=O)N[C@H](C=O)CC(=O)O)C(C)C [Compound K, N-[N-Acetyl-tyrosinyl-valinyl-(4-benzyloxy)prolinyl]-3-amino-4-oxobutanoic acid] (Ac-YV[Hyp](Bn)D-aldehyde) |  |  | IC50 [3]: 2 to 11 µM
CC(=O)N[C@@H](Cc1ccc(O)cc1)C(=O)N[C@H](C(=O)N1C[C@H](Oc2ccccc2)C[C@H]1C(=O)N[C@H](C=O)CC(=O)O)C(C)C [I, N-(N-Acetyl-tyrosinyl-valinyl-(4-phenoxyprolinyl))-3-amino-4-oxobutanoic acid] (Ac-YV[Pro(4R-OPh)]D-aldehyde) |  |  | IC50 [3]: 2.6 µM
CC(=O)N[C@@H](Cc1ccc(O)cc1)C(=O)N[C@H](C(=O)N1C[C@H](O)C[C@H]1C(=O)N[C@H](C=O)CC(=O)O)C(C)C [J, N-[N-Acetyl-tyrosinyl-valinyl-(4-hydroxyprolinyl)]-3-amino-4-oxobutanoic acid] (Ac-YV[Hyp]D-aldehyde) |  |  | IC50 [3]: 5 to 7 µM

Reference: patent US20110015371A1 (Vertex Pharmaceuticals Incorporated, priority 1994, published 2011)
